Reference: PubChem BioAssay AID488890 (Southern Research Specialized Biocontainment Screening …, 2010)
Results filed as inconclusive are left out. Active and inactive are the calls of the source. No rule for the calls is given here.

tested on: Mycobacterium tuberculosis non-replicating, growth inhibition; experiment: growth inhibition of non-replicating M. tuberculosis (AID 488890)

SMILES	IC50
COc1ccc(C(=O)COC(=O)CCC(=O)c2cccs2)cc1	34.2 µM (inactive)
O=C(NCc1ccc(F)cc1)c1cnccn1	3.86 µM
O=C(N/N=C1\CCCc2c1[nH]c1ccc(Cl)cc21)c1ccncc1	1.78 µM
O=C(Nc1nnc(-c2ccc(Br)cc2)o1)C1=COCCO1	24.6 µM (inactive)
O=C(CCC1CCCCC1)NCc1cccs1	0.27 µM
Clc1ccc(SCCCCN2CCNCC2)cc1	39.3 µM (inactive)
Cc1cccc(NC(=O)CO/N=C/c2ccc3c(c2)OCO3)c1	10.2 µM (inactive)
Cc1cccc(OC(=O)c2ccc3nccnc3c2)c1	7.79 µM
COc1cccc(C(=O)OCC(=O)c2ccc(Br)s2)c1OC	9.02 µM
Cc1nc([N+](=O)[O-])c(Br)n1CC(=O)c1ccc(Cl)cc1	5.69 µM
COc1ccc(-c2[nH]ncc2CN2CCCCCCC2)c(OC)c1	11 µM (inactive)
COc1ccc(C(=O)Oc2c(CN3CCOCC3)cc(Cl)c3cccnc23)cc1OC	15.3 µM (inactive)
O=C(NC(=S)Nc1ccc(F)cc1)C1CCCCC1	0.71 µM
O=C1C=CC(=O)N1N(c1ccccc1)c1ccccc1	8.68 µM
CC(=O)c1ccc(Sc2nnnn2-c2ccccc2)c([N+](=O)[O-])c1	19.4 µM (inactive)
O=C(Nc1ccccn1)c1ccc(C(=O)c2ccccc2)cc1	18.4 µM (inactive)
COc1cccc2[nH]c3c(Cl)ncnc3c12	17.4 µM (inactive)
CC(C)(C)c1ccc(-c2nc(C#N)c(NCCCn3ccnc3)o2)cc1	38.2 µM (inactive)
S=C1SCN(Cc2ccco2)CN1Cc1ccco1	14.1 µM (inactive)
NC(N)=N/N=C/c1cn(-c2ccccc2)nc1-c1cccs1	6.07 µM
COc1ccccc1N1CCN(C(=O)c2ccc([N+](=O)[O-])s2)CC1	5.97 µM
CCOc1cc(CNCCO)cc(Br)c1OCc1ccc(Cl)cc1	5.65 µM
N#Cc1ccc(CSc2nnc(-c3cccnc3)o2)cc1	11.5 µM (inactive)

SMILES	IC50
CC/C(=C\C=C\[C@@H]1C=C[C@@H]2CCC[C@H]2[C@@H]1C(=O)c1ccc[nH]1)[C@@H]1O[C@@H]([C@@H](C)C(=O)O)CC[C@@H]1C	3.28 µM
Cc1cc2ncn(/N=C/c3ccc([N+](=O)[O-])s3)c2cc1C	1.09 µM
Cc1cccc(OC(=O)c2sc3ncn(C)c(=O)c3c2C)c1	4.61 µM
Cc1nc2ccc(Cl)cc2nc(C)/c1=N\O	14.4 µM (inactive)
CC(C)[C@H]1CN=C2N(C[C@H](C)NC(=O)CCC3CCCCC3)[C@H](Cc3ccc(O)cc3)CN21	19.3 µM (inactive)
COc1ccc(C)c2sc(NC(=O)CCS(=O)(=O)c3ccccc3)nc12	6 µM
O=C(N/N=C\c1ccc([N+](=O)[O-])s1)c1cncc(Br)c1	2.02 µM
Cc1[nH]c2ccccc2c1C(=O)C(C)OC(=O)c1ccc([N+](=O)[O-])o1 (centres undefined)	1.07 µM
O=c1[nH]c2ccccc2c2oc(CCl)nc12	4.22 µM
O=C(OCc1ccccn1)c1ccc(COc2ccccc2Cl)o1	3.14 µM
COc1cccc(-c2nnc(NC(=O)c3cccc(F)c3)o2)c1	11.1 µM (inactive)
O=C(COc1ccc2ccccc2c1)NNC(=O)c1cccs1	4.52 µM
CC(NC(=O)c1cc2cc(Br)ccc2oc1=N)c1ccccc1 (centres undefined)	6.97 µM
CC(OC(=O)c1ccc2c(=O)n3c(nc2c1)CCCCC3)C(=O)Nc1ccc(Cl)cn1 (centres undefined)	3.69 µM
Cc1cc(C)c2ccc(/C=N/O)nc2c1O	5.77 µM
CCOC(=O)CCS(=O)(=O)c1nc(-c2ccccc2)cc(C(F)(F)F)n1	0.99 µM
O=c1cc2[nH]c3ccccc3c(=O)n2nc1-c1ccccc1	7.1 µM
Cc1ccn2c(NC3CCCC3)c(-c3ccccn3)nc2c1	12 µM (inactive)
CCOC(=O)c1csc(COc2ccc(OC)cc2)n1	7.75 µM
O=c1c(=Nc2ccccc2O)c(=O)c2ccccc12	2.73 µM
O=C(N/N=C/c1cccc2cccnc12)[C@H]1C[C@@H]1c1ccccc1	13.1 µM (inactive)
CC(C)(C)c1ccccc1OCCOCCN1CCCCCC1	16.2 µM (inactive)
Cc1ccc(C)c(NC(=O)c2cc([N+](=O)[O-])cc([N+](=O)[O-])c2)c1	28.3 µM (inactive)

SMILES	IC50
COc1ccc(N=N/C(=C\O)C(=O)c2ccco2)cc1	21.5 µM (inactive)
Cc1cc(OCCCCn2ccnc2)cc(C)c1Cl	4.68 µM
CN(C)CCC(=O)N1c2ccccc2Sc2ccc(C(F)(F)F)cc21	17.9 µM (inactive)
O=C(NCCSc1ccccc1)c1ccc(Br)cc1	32.1 µM (inactive)
Cc1csc(=Nc2cccnc2)n1CC1CCCCC1	17.5 µM (inactive)
O=C(Nc1nnc(C2=COCCO2)o1)c1ccc(F)cc1	15.9 µM (inactive)
O=C(C/C=N\OCc1ccc([N+](=O)[O-])cc1)Nc1ccccc1	4.57 µM
O=c1oc(-c2ccccc2[N+](=O)[O-])nc2ccccc12	18.9 µM (inactive)
COc1ccc(OC(=O)C2CC(=O)N(c3ccc(C)cc3)C2)cc1 (centres undefined)	9.65 µM
COc1cccc2cc(-c3nc4ccccc4o3)c(=O)oc12	7.31 µM
CC1CC(C)CN(CCOCCSc2ccc(Cl)cc2)C1 (centres undefined)	30.7 µM (inactive)
Cc1ccc(NC(=O)CO/N=C/c2ccc(N(C)C)cc2)cc1	7.84 µM
Cc1nc(C(=O)NNC(=O)c2ccc(Cl)cc2)c(C(F)(F)F)o1	13.9 µM (inactive)
O=C(CCNc1cccc(F)c1)c1cccc([N+](=O)[O-])c1	5.37 µM
COC(=O)COc1ccc2c(=O)c(-c3ccccc3OC)coc2c1	7.87 µM
COc1ccc(Nc2ccccc2N)cc1	2.72 µM
CC1CCN(C(=O)C2COc3ccccc3O2)CC1 (centres undefined)	0.23 µM
COc1ccc(OCC(=O)NNC(=O)c2ccccn2)cc1	11.3 µM (inactive)
COC(=O)CCCCCN1C(=O)/C(=C\c2ccncc2)SC1=S	3.94 µM
CCOc1cc(C=O)cc(N=Nc2cccc([N+](=O)[O-])c2)c1O	1.31 µM
O=C(OCC(=O)N1CCc2ccccc21)c1ccc([N+](=O)[O-])cc1	12.5 µM (inactive)
O=[N+]([O-])c1cc(-c2nc(-c3ccncc3)no2)cc([N+](=O)[O-])c1	1.59 µM
COc1cc(C2C3=C(CC(C)(C)CC3=O)OC(N)=C2[N+](=O)[O-])ccc1O (centres undefined)	50 µM (inactive)

SMILES	IC50
CC(C)CCNCC(O)CON=C1c2ccccc2-c2ccccc21 (centres undefined)	9.29 µM
COCCn1c(C)cc(C(=O)COC(=O)c2ccc([N+](=O)[O-])o2)c1C	2.79 µM
CCC(CC)c1nnc(NC(=O)c2ccc3ccccc3n2)s1	4.02 µM
N=c1n(CCN2CCCCC2)c2ccccc2n1CC(=O)c1ccc(Cl)c(Cl)c1	21.5 µM (inactive)
Cc1nc([N+](=O)[O-])c(Br)n1CC(=O)c1ccc2ccccc2c1	7.54 µM
C/C(=N\NC(=O)c1cccc(Cl)c1)C1C(=O)c2ccccc2C1=O	0.38 µM
Cc1cc(N/N=C/c2ccccc2O)c2ccccc2n1	10.1 µM (inactive)
CCOC(=O)CC(=O)Nc1ccc(C(=O)OCC)cc1	5.23 µM
CN1CCN(c2ccc(NC(=O)c3ccc(-c4ccc(Br)cc4)o3)cc2)CC1	4.06 µM
CC(C)CNc1nc(=S)nc(N(C)C)[nH]1	11.5 µM (inactive)
C=CCNc1nnc(Sc2ncccc2[N+](=O)[O-])s1	4.7 µM
O=c1cc(-c2ccccc2Cl)oc2ccc([N+](=O)[O-])c(O)c12	1.59 µM
CCCn1c(O)c(N=NC(=O)c2ccco2)c2ccccc21	14.2 µM (inactive)
O=C1NC(=O)N(Cc2ccc(F)cc2)C(=O)/C1=C\c1ccc([N+](=O)[O-])s1	11.2 µM (inactive)
C=C(C)C1CC=C(C)/C(=N/NC(=O)CNc2ccc(OCC)cc2)C1 (centres undefined)	> 25 µM (inactive)
Cc1ccc(OCC(=O)N2CCCc3ccccc32)cc1	6.25 µM
CC1=NN(C(=O)c2ccccc2)C(O)(c2ccc(Br)cc2)C1 (centres undefined)	0.62 µM
C/C(=N\NC(=O)c1ccccc1O)C1C(=O)c2ccccc2C1=O	0.64 µM
O=C(O)c1ccccc1-c1ccccc1C(=O)Nc1nc2ccccc2s1	6.29 µM
Cn1c(=O)c(C(=O)Nc2ccccn2)c(O)c2ccccc21	13.2 µM (inactive)
FC(F)c1nnc2ccc(Cl)nn12	5.9 µM
O=C(N/N=C/c1cc(Br)cc(Br)c1O)c1cccc(N2CCCC2=O)c1	4.24 µM
COC(=O)COc1ccc(-c2ccccc2)cc1C=O	8.95 µM

SMILES	IC50
COc1ccc(CCCC(=O)NCc2ccccc2)cc1C	5.26 µM
COC(=O)c1cc(-c2ccc(OC)cc2)on1	1.55 µM
COc1cc2[nH]c(Cl)c([N+](=O)[O-])c2cc1OC	14.1 µM (inactive)
CCCc1cc(=O)n2[nH]c(C)c(-c3ccccc3)c2n1	11.4 µM (inactive)
Cc1ccc(Sc2ccc(/C=C3/C(=O)NN(c4ccccc4)C3=O)o2)cc1	4.23 µM
CN1CC=C(/C=C/c2ccc(-c3ccccc3)cc2)CC1	11.4 µM (inactive)
Cc1ccc(C(=O)COC(=O)c2cccs2)cc1	11 µM (inactive)
CCn1cc(/C=N\NC(=O)c2ccc(F)cc2)cn1	24.3 µM (inactive)
CCOC(=O)COc1cc(N)c(Cl)cc1Cl	5.21 µM
CS/C(Nc1cc(Cl)ccc1Cl)=C(/C#N)C(=O)c1ccco1	1.5 µM
O=C(N/N=C/c1ccccn1)c1cc([N+](=O)[O-])cc([N+](=O)[O-])c1	9.98 µM
Cc1ccccc1C(=O)NN1CC(C(=O)OCc2ccc(Cl)c(Cl)c2)CC1=O (centres undefined)	14.1 µM (inactive)
Cc1ccc(C(=O)Nc2nccs2)cc1	19.8 µM (inactive)
O=C(COc1ccc2c(c1)CCC2)Nc1ccccn1	11.6 µM (inactive)
O=C(Nc1cccc(Cl)c1N1CCCC1)c1ccc([N+](=O)[O-])o1	12 µM (inactive)
CNc1nc(-c2ccccn2)nnc1-c1ccccc1	16.2 µM (inactive)
CCOc1ccc(/C=N/OCC(=O)Nc2ccc3c(c2)OCO3)cc1	5.11 µM
Nc1nonc1C(=O)NCCN=Cc1cc(Cc2ccccc2)cc(Br)c1O	5.63 µM
CCC(=O)c1ccc(OC(=O)c2ccc(Br)o2)cc1	9.81 µM
O=C(COC(=O)CCC(=O)c1ccc(F)cc1)Nc1ccccc1	11.1 µM (inactive)
O=C(NNc1nc2cc3c(cc2s1)OCCO3)c1ccccc1	23.5 µM (inactive)
CCN(CC)CCSc1nnc2c3cc(C)ccc3n(Cc3ccccc3)c2n1	14.3 µM (inactive)
